Measurements: paper PMC12113356, “Novel Anti-MRSA Peptide from Mangrove-Derived Virgibacillus chiguensis FN33 Supported by Genomics and Molecular Dynamics” (Marine Drugs, 2025)
≈ marks a conversion by molar mass, not a printed value. Read-outs that look alike come from different tables or passages of the source. Peptide text beside a SMILES is read from it.

Columns and labels:
S. aureus TISTR 517 [1] = assay: Broth microdilution MIC/MBC (CLSI); format: cell-based, Staphylococcus aureus; details: broth microdilution, CAMHB, 37 °C 24 h, triplicate
Description: The broth microdilution method was performed following the guidelines of the Clinical and Laboratory Standards Institute (CLSI). Test strains including S. aureus TISTR 517 and MRSA strains 142, 1096, and 2468 were cultured on MH agar at 37 °C for 18 h. A single colony from each strain was suspended in 0.85% NaCl until it reached a turbidity of 0.1 OD at 625 nm (1 × 10^8 CFU/mL). The bacterial cells were then diluted to 5 × 10^6 CFU/mL using cation-adjusted Mueller–Hinton broth (CAMHB). Ten microliters of the cell suspension were added to each well of a 96-well plate to make the total volume in each well 100 µL. The AMP was added to achieve final concentrations ranging from 0.125 to 64 µg/mL. Vancomycin and cefoxitin were used as positive controls, while antibiotic-free samples were used as negative controls. The plate was incubated at 37 °C for 24 h. Each experiment was performed in triplicate. The MIC was determined as the lowest concentration that inhibited visible bacterial growth. For the MBC, 100 µL from each dilution was spread on MH agar and incubated at 37 °C for 24 h. The MBC was the lowest concentration at which no bacterial colonies appeared on the agar plates.

MRSA strain 2468 [2] = assay: Scanning electron microscopy of treated cells; format: cell-based, Staphylococcus aureus; details: 1× MIC, 16 h / 18 h (figure legend), 30,000× magnification
Text: (§1) SEM was used to examine morphological alterations in the bacterial cells. […] This appearance reflected their natural cellular structure.
(§2) Figure 5 SEM images captured at 30,000× magnification. […] The non-treatment condition served as a negative control.

S. aureus TISTR 517 [3] = assay: Scanning electron microscopy of treated cells; format: cell-based, Staphylococcus aureus; details: 1× MIC, 16 h / 18 h (figure legend), 30,000× magnification
Text: as §1, §2

MRSA strain 2468 [4] = assay: Thermal stability (activity retention by agar well diffusion); format: physicochemical, Staphylococcus aureus; details: for Antibacterial Activity Retention of FN33 AMP (%) Against MRSA Strain 2468: 32 µg/mL in water, agar well diffusion read-out, % of untreated sample, mean ± SD, n = 3
Description: (§3) The AMP solution was prepared in sterile purified water and adjusted to a final concentration of 32 µg/mL. To determine thermal stability, the AMP was exposed to temperatures of 30, 40, 60, 80, and 100 °C, as well as to autoclaving at 121 °C and 15 psi for 15 and 30 min. The susceptibility of the AMP to enzymatic degradation was examined by treating it with proteinase K, trypsin, and α-chymotrypsin (each at 1 mg/mL, Sigma-Aldrich, Warren, MI, USA), representing different proteolytic mechanisms. The AMP’s compatibility with surfactants was assessed by incubating it with 1% SDS, 1% CTAB, and 1% Triton X-100 (AppliChem GmbH, Darmstadt, Germany). Additionally, the effect of pH variations on AMP integrity was tested by adjusting the solution to pH 1, 4, 8, 10, and 14. The pH was neutralized to the original pH after incubation before conducting antibacterial activity tests. […] Stability data were expressed as residual activity percentages relative to the untreated sample (mean ± SD), and statistical significance was evaluated using two-way ANOVA and Tukey’s post hoc test, with a p-value < 0.05 considered significant.

trypsin = format: in vitro ADME; details: 32 µg/mL, trypsin 1 mg/mL, agar well diffusion read-out vs MRSA strain 2468, % of untreated sample, mean ± SD, n = 3
Description: as §3

MRSA strain 2468 [5] = assay: Compatibility with surfactants (activity retention by agar well diffusion); format: physicochemical, Staphylococcus aureus; details: 32 µg/mL, agar well diffusion read-out, % of untreated sample, mean ± SD, n = 3
Description: as §3

egg albumin = assay: Albumin denaturation assay (in vitro anti-inflammatory); format: biochemical, hen; details: PBS pH 7.2, 37 °C 15 min then 70 °C 5 min, OD 660 nm, mean ± SD, n = 3
Description: The reaction mixture consisted of 25 μL of egg albumin (derived from fresh hen eggs), 350 μL of PBS (pH 7.2, 0.1 M), and 250 μL of AMP or PBS (used as a reference). The mixtures were pre-incubated at 37 °C for 15 min, followed by denaturation at 70 °C for 5 min. After a 5 min cooling period on ice, the optical density (OD) at 660 nm was measured using a spectrophotometer. […] The percentage inhibition of albumin denaturation was calculated using the following equation:Inhibition of albumin denaturation (%) = [1 − (Absorbancesample/Absorbancecontrol)] × 100

[6] = DPPH radical-scavenging assay; details: 0.1 mM DPPH, 25 °C, 30 min in darkness, absorbance 517 nm; mean ± SD, n = 3
Description: A 200 μL sample or ascorbic acid (Gammaco Ltd., Bangkok, Thailand) was added to 2 mL of 0.1 mM DPPH solution (Merck Ltd., Bangkok, Thailand) and incubated at 25 °C in darkness for 30 min. The DPPH color change from purple to pale yellow was observed, and the absorbance at 517 nm was measured using a UV–visible spectrophotometer.

CC(C)C[C@H](NC(=O)[C@H](CC(=O)O)NC(=O)[C@H](CS)NC(=O)[C@H](Cc1c[nH]cn1)NC(=O)[C@H](CS)NC(=O)[C@@H]1CCCN1C(=O)[C@@H](NC(=O)[C@H](CC(C)C)NC(=O)[C@H](CS)NC(=O)CNC(=O)[C@H](Cc1c[nH]c2ccccc12)NC(=O)[C@@H](NC(=O)[C@H](CC(=O)O)NC(=O)[C@@H](NC(=O)CNC(=O)[C@H](CS)NC(=O)CNC(=O)CNC(=O)[C@@H](N)CCC(=O)O)C(C)C)[C@@H](C)O)[C@@H](C)O)C(=O)N[C@@H](Cc1ccccc1)C(=O)N[C@@H](CS)C(=O)N[C@H](C(=O)N[C@H](C(=O)O)[C@@H](C)O)[C@@H](C)O [FN33 AMP] (H-EGGCGVDTWGCLTPCHCDLFCTT-OH)
MIC (S. aureus TISTR 517 [1]): 16 µg/mL (≈ 6.61 µM)
morphological changes under SEM (MRSA strain 2468 [2]): greater number of completely lysed cells
morphological changes under SEM (S. aureus TISTR 517 [3]): dented and rough surface with fewer lysed cells
Antibacterial Activity Retention of FN33 AMP (%) Against MRSA Strain 2468 (MRSA strain 2468 [4]; 30 °C, 1 h): 100.00 ± 0.66%
Antibacterial Activity Retention of FN33 AMP (%) Against MRSA Strain 2468 (MRSA strain 2468 [4]; 30 °C, 6 h): 100.00 ± 0.17%
Antibacterial Activity Retention of FN33 AMP (%) Against MRSA Strain 2468 (MRSA strain 2468 [4]; 30 °C, 12 h): 99.79 ± 0.47%
Antibacterial Activity Retention of FN33 AMP (%) Against MRSA Strain 2468 (MRSA strain 2468 [4]; 40 °C, 1 h): 100.08 ± 0.48%
Antibacterial Activity Retention of FN33 AMP (%) Against MRSA Strain 2468 (MRSA strain 2468 [4]; 40 °C, 6 h): 100.02 ± 0.35%
Antibacterial Activity Retention of FN33 AMP (%) Against MRSA Strain 2468 (MRSA strain 2468 [4]; 40 °C, 12 h): 100.23 ± 0.28%
Antibacterial Activity Retention of FN33 AMP (%) Against MRSA Strain 2468 (MRSA strain 2468 [4]; 60 °C, 1 h): 98.58 ± 1.74%
Antibacterial Activity Retention of FN33 AMP (%) Against MRSA Strain 2468 (MRSA strain 2468 [4]; 60 °C, 6 h): 93.53 ± 1.27 *^,† %
Antibacterial Activity Retention of FN33 AMP (%) Against MRSA Strain 2468 (MRSA strain 2468 [4]; 60 °C, 12 h): 86.98 ± 0.79 *^,† %
Antibacterial Activity Retention of FN33 AMP (%) Against MRSA Strain 2468 (MRSA strain 2468 [4]; 80 °C, 1 h): 95.17 ± 0.43 %
Antibacterial Activity Retention of FN33 AMP (%) Against MRSA Strain 2468 (MRSA strain 2468 [4]; 80 °C, 6 h): 90.91 ± 0.26 *^,† %
Antibacterial Activity Retention of FN33 AMP (%) Against MRSA Strain 2468 (MRSA strain 2468 [4]; 80 °C, 12 h): 82.46 ± 0.55 *^,† %
Antibacterial Activity Retention of FN33 AMP (%) Against MRSA Strain 2468 (MRSA strain 2468 [4]; 100 °C, 1 h): 90.83 ± 0.67 %
Antibacterial Activity Retention of FN33 AMP (%) Against MRSA Strain 2468 (MRSA strain 2468 [4]; 100 °C, 6 h): 83.38 ± 0.83 *^,† %
Antibacterial Activity Retention of FN33 AMP (%) Against MRSA Strain 2468 (MRSA strain 2468 [4]; 100 °C, 12 h): 79.97 ± 0.06 *^,† %
Antibacterial Activity Retention of FN33 AMP (%) Against MRSA Strain 2468 (MRSA strain 2468 [4]; autoclave 121 °C and 15 psi, 15 min): 72.82 ± 0.53 %
Antibacterial Activity Retention of FN33 AMP (%) Against MRSA Strain 2468 (MRSA strain 2468 [4]; autoclave 121 °C and 15 psi, 30 min): 65.87 ± 0.82 *^,† %
activity lost due to elevated temperatures (MRSA strain 2468 [4]; 60 °C, 80 °C and 100 °C, over 12 h): up to 20%
Antibacterial Activity Retention of FN33 AMP (%) Against MRSA Strain 2468 (trypsin; 1 h): 99.60 ± 0.6%
Antibacterial Activity Retention of FN33 AMP (%) Against MRSA Strain 2468 (trypsin; 6 h): 98.82 ± 0.67%
Antibacterial Activity Retention of FN33 AMP (%) Against MRSA Strain 2468 (trypsin; 12 h): 99.04 ± 1.02%
Antibacterial Activity Retention of FN33 AMP (%) Against MRSA Strain 2468 (MRSA strain 2468 [5]; with CTAB 1% w/v, 1 h): 93.19 ± 0.52 %
Antibacterial Activity Retention of FN33 AMP (%) Against MRSA Strain 2468 (MRSA strain 2468 [5]; with CTAB 1% w/v, 6 h): 93.17 ± 0.48 %
Antibacterial Activity Retention of FN33 AMP (%) Against MRSA Strain 2468 (MRSA strain 2468 [5]; with CTAB 1% w/v, 12 h): 92.51 ± 0.69 *^,† %
Antibacterial Activity Retention of FN33 AMP (%) Against MRSA Strain 2468 (MRSA strain 2468 [5]; with SDS 1% w/v, 1 h): 117.08 ± 0.78 %
Antibacterial Activity Retention of FN33 AMP (%) Against MRSA Strain 2468 (MRSA strain 2468 [5]; with SDS 1% w/v, 6 h): 117.39 ± 0.96 %
Antibacterial Activity Retention of FN33 AMP (%) Against MRSA Strain 2468 (MRSA strain 2468 [5]; with SDS 1% w/v, 12 h): 115.95 ± 0.57 %
Antibacterial Activity Retention of FN33 AMP (%) Against MRSA Strain 2468 (MRSA strain 2468 [5]; with Triton X-100 1% w/v, 1 h): 81.23 ± 1.04 %
Antibacterial Activity Retention of FN33 AMP (%) Against MRSA Strain 2468 (MRSA strain 2468 [5]; with Triton X-100 1% w/v, 6 h): 81.69 ± 0.38 %
Antibacterial Activity Retention of FN33 AMP (%) Against MRSA Strain 2468 (MRSA strain 2468 [5]; with Triton X-100 1% w/v, 12 h): 81.30 ± 0.72 %
% Inhibition of Albumin Denaturation (egg albumin; 50 µg/mL): 4.85 ± 0.93 *^,† %
% Inhibition of Albumin Denaturation (egg albumin; 100 µg/mL): 17.75 ± 0.97 *^,† %
% Inhibition of Albumin Denaturation (egg albumin; 250 µg/mL): 34.39 ± 1.82 %
% Inhibition of Albumin Denaturation (egg albumin; 500 µg/mL): 57.16 ± 1.06 %
IC50 (DPPH radical scavenging) [6]: 11.66 ± 2.87 µg/mL (≈ 4.82 µM)
